In brackets after ≈: the same amount, converted by molar mass.
Test system: E. Coli 324
Assay: In vitro antibacterial activity by the two-fold agar-plate dilution method
Format: cell-based
Settings: Escherichia coli, HI-agar, overnight culture 10^8 viable cells per ml., 37° C. for 20 hours, read-out: MIC (minimal inhibitory concentration)
Experimental: In vitro antibacterial activity was determined by the two-fold agar-plate dilution method as described below. One loopful of an overnight culture of each test strain in Trypticase-soy broth (10^8 viable cells per ml.) was streaked on heart infusion agar (HI-agar) containing graded concentrations of antibiotics, and the minimal inhibitory concentration (MIC) was expressed in terms of μg/ml. after incubation at 37° C. for 20 hours.

Row | MIC [µg/mL] | SMILES
1 | 0.05 (≈ 0.1 µM) | Cc1nnc(SCC2=C(C(=O)O)N3C(=O)C(NC(=O)C(=O)c4csc(N)n4)C3SC2)s1 (centres unmarked) [(3)]
2 | 0.05 (≈ 0.104 µM) | Cn1nnnc1SCC1=C(C(=O)O)N2C(=O)C(NC(=O)C(=O)c3csc(N)n3)C2SC1 (centres unmarked) [(1)]
3 | 0.05 (≈ 0.104 µM) | Cc1nnc(SCC2=C(C(=O)O)N3C(=O)C(NC(=O)C(=O)c4csc(N)n4)C3SC2)o1 (centres unmarked) [(4)]
4 | 0.05 (≈ 0.103 µM) | Nc1nc(C(=O)C(=O)NC2C(=O)N3C(C(=O)O)=C(CSc4nncs4)CSC23)cs1 (centres unmarked) [(2)]
5 | 0.05 (≈ 0.104 µM) | Cn1cnnc1SCC1=C(C(=O)O)N2C(=O)C(NC(=O)C(=O)c3csc(N)n3)C2SC1 (centres unmarked) [(5)]
